From patent US6558650B1, “Enhancement of cellular gallium uptake” (Oregon Health and Science University, priority 1998, dated 2003)

Legend:
[1] = system: TfR− and TfR+ cells (Chinese Hamster Ovary); experiment: Cellular uptake of Ga-67, text statements that do not separate TfR− and TfR+ cells; format: cell-based
Text: (§1) A pair of transfected Chinese Hamster Ovary cells lines were used to compare, in a controlled manner, the Tf-dependent and Tf-independent systems for the uptake of Ga-67.
(§2) The two cell lines are identical except that TfR-cells express no TfR, and TfR+ cells over-express the transfected human TfR constitutively. This means that expression of the TfR is independent of cell growth or iron content, which could alter the cells matabolically in many ways that may confound a well-controlled experimental determination of cause and effect. TfR− and TfR+ cells were grown in monolayer and maintained as previously described (37).
The tube was placed on its side on the surface of a cool, daylight color-balanced, fluorescent light box (Just Normlicht).
The temperature at the surface of the light box was 29° C. for the fluorescent light box, and 37° C. for the UV light box. The PDN was added to 10 ml of incubation solution (below) to achieve concentrations ranging from 0.25 μM to 100 μM. Each 10 ml sample of incubation solution contained an equal quantity of ethanol (approximately 100 µl per 10 ml), including the controls.
Following growth of cells in 25 cm^2 flasks to subconfluence, monolayers of cultured cells were first washed, and then pre-incubated for 2 hours at 37° C. with 5 ml serum-free Dulbecco's Modified Essential Medium (DMEM) to deplete the cells of Tf. The pre-incubation medium was then removed and replaced by 1.5 ml of the incubation solution containing 10 uCi/ml carrier-free Ga-67 citrate (Mallinckrodt) in Hank's Balanced Salt solution (HBSS), pre-warmed to 37° C. The concentration of Ga-67 in the incubation solution was approximately 0.25 nM. The HBSS, pH 7.2-7.4, contained 3.7 g/L NaHCO3, 1 mM CaCl2, and 1 mM magnesium salts. Cells were incubated in the PDN- and Ga-67-containing solutions in a CO2 incubator at 37° C. for intervals ranging from 10 seconds to 90 minutes. All experiments were conducted in the dark.
Following incubation of cells with Ga-67, the flasks were immediately placed on ice. The radioactive material was removed by aspiration with a Pasteur pipette attached to water suction. The monolayers were washed 3 times with 5 ml each ice cold HBSS. Cells were washed once with phosphate-buffered saline (PBS), pre-warmed to 37° C. The PBS was removed and the cellular monolayer overlaid with 1.5 ml 0.25% trypsin containing 1 mM EDTA. The trypsin was immediately removed and the cells were incubated briefly (1 minute) at 37° C. The cells in each flask were then dislodged by several gentle mechanical blows to the side of the flask and collected in 200 μl ice cold PBS.
By a modification of a method previously published for radiolabeling of protozoan parasites (38), the cells were then separated from unbound contaminating radioactivity. The 200 μl of cells in PBS were layered gently over 200 μl of an 8.5:1.5 ratio of dibutylpthalate:liquid paraffin oil in a 1.5 ml microfuge tube. With care not to agitate the mixture, the tubes were than centrifuged at 12,000 rpm for 2 minutes in a microfuge. The supernatant and the oil was then aspirated carefully from the top of the tube with a Pasteur pipette attached to water suction. The bottom of the microfuge tube, containing the cell pellet (typical pellet volume˜100 μl), was then clipped with a microfuge tube clipper into a counting vial containing 900 μl of a solution of 200 mM NaOH. 1% SDS. The cell pellet was dissolved in this solution. The content of radioactivity in the samples was determined by a gamma well counting (Packard) in comparison to standard dilutions of the original Ga-67 incubation solution.
Protein assays were performed on the solubilized cell samples by formation of a cuprous bicinchonicic acid complex using a spectrophotometric microtiter plate reader (Dynatech) (39). The method and reagents used are supplied in a kit (Pierce) and were performed according to the manufacturer's directions.

[2] = system: TfR− cells (transfected Chinese Hamster Ovary cells expressing no TfR); conditions: 0.5 h, 25 µM
Text: as §1, §2
(§3) The tube was placed on its side on the surface of a cool, daylight color-balanced, fluorescent light box (Just Normlicht). […]
(§4) The temperature at the surface of the light box was 29° C. for the fluorescent light box, and 37° C. for the UV light box. […] Each 10 ml sample of incubation solution contained an equal quantity of ethanol (approximately 100 µl per 10 ml), including the controls. […]
(§5) By a modification of a method previously published for radiolabeling of protozoan parasites (38), the cells were then separated from unbound contaminating radioactivity. […] The content of radioactivity in the samples was determined by a gamma well counting (Packard) in comparison to standard dilutions of the original Ga-67 incubation solution. […]

[3] = system: TfR+ cells (transfected Chinese Hamster Ovary cells over-expressing human TfR); conditions: 0.5 h, 25 µM
Text: as §1, §2, §3, §4, §5

[4] = oral; cited from earlier work
[5] = system: nucleated rabbit erythrocytes; conditions: isolated nitroso-derivative compared with crude photo-degraded nifedipine (44); cited from earlier work

SMILES	effect on Ga-67 uptake ([1]; light-protected compound)	effect on Ga-67 uptake ([1]; photo-irradiated compound)	also measured
COc1ccc(CCN(C)CCCC(C#N)(c2ccc(OC)c(OC)c2)C(C)C)cc1OC (centres unmarked) [verapamil]	None of the light-protected or photo-irradiated compounds had an effect	None of the light-protected or photo-irradiated compounds had an effect	
COC(=O)C1=C(C)NC(C)=C([N+](=O)[O-])C1c1ccccc1C(F)(F)F (centres unmarked) [BAY K 8644]	None of the light-protected or photo-irradiated compounds had an effect	None of the light-protected or photo-irradiated compounds had an effect	
COC(=O)C1=C(C)NC(C)=C(C(=O)OC)C1c1ccccc1[N+](=O)[O-] [Nifedipine, dimethyl 1,4-dihydro-2,6-dimethyl-4-(2-nitrophenyl)-3,5-pyridinedicarboxylate]			fmoles Ga-67/mg Total Cellular Protein, TfR− cells [2]: .171 fmoles Ga-67/mg Total Cellular; fmoles Ga-67/mg Total Cellular Protein, TfR+ cells [3]: 0.296 fmoles Ga-67/mg Total Cellular; time to peak plasma levels post ingestion [4]: approximately 30 minutes
CC(=O)c1c(C)nc(C)c(C(C)=O)c1-c1ccccc1N=O [nitroso-derivative, 2,6-dimethyl-3,5-diacetyl-4-(2′-nitrosophenyl)-pyridine]			gallium uptake (inferred from conditions that correlate with presence of the nitroso-derivative) ([1]; not tested in isolation, inferred from Example 3 data): enhances gallium uptake; pharmacological action in enhancing the uptake of Fe^2+ [5]: same pharmacological action as “crude” photo-degraded nifedipine
COc1ccc([C@@H]2Sc3ccccc3N(CCN(C)C)C(=O)[C@@H]2OC(C)=O)cc1 [diltiazem]	None of the light-protected or photo-irradiated compounds had an effect	None of the light-protected or photo-irradiated compounds had an effect	
